Data: PubChem BioAssay AID256 (DTP/NCI, 2004)
Values joined by “and” are separate entries in the source; they are usually repeats but may differ in a detail not shown here. Identical values can stand only once. Toxic doses and inconclusive results are not listed.

System: CD2F1 mice, L1210 leukemia ip, survival T/C
Experiment: NCI In Vivo Anticancer Drug Screen. Data for tumor model L1210 Leukemia (intraperitoneal) in CD2F1 (CDF1) mice
Conditions: higher = longer survival
In short: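 Vehicle-treated tumor-bearing mice served as controls (C) for compound-treated mice (T). Reported figure is T divided by C.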

[1] = endpoint: mean survival time, dose: 100.0 mg/kg/injection, schedule: Q04DX003 (ip), vehicle: saline with Tween-80
[2] = endpoint: mean survival time, dose: 200.0 mg/kg/injection, schedule: Q04DX003 (ip), vehicle: saline with Tween-80
[3] = endpoint: mean survival time, dose: 400.0 mg/kg/injection, schedule: Q04DX003 (ip), vehicle: saline with Tween-80
[4] = endpoint: mean survival time, dose: 100.0 mg/kg/injection, schedule: Q01DX009 (ip), vehicle: saline with Tween-80
[5] = endpoint: mean survival time, dose: 400.0 mg/kg/injection, schedule: Q01DX009 (ip), vehicle: saline with Tween-80
[6] = endpoint: mean survival time, dose: 100.0 mg/kg/injection, schedule: Q04DX003 (ip), vehicle: saline
[7] = endpoint: mean survival time, dose: 200.0 mg/kg/injection, schedule: Q04DX003 (ip), vehicle: saline
[8] = endpoint: mean survival time, dose: 400.0 mg/kg/injection, schedule: Q04DX003 (ip), vehicle: saline
[9] = endpoint: mean survival time, dose: 200.0 mg/kg/injection, schedule: Q01DX009 (ip), vehicle: saline with Tween-80

COC12[C@@H]3N[C@@H]3CN1C1=C(C(=O)C(NCCSSCCNC3=C(C)C(=O)C4=C(C3=O)C(COC(N)=O)[C@]3(OC)C5N[C@@H]5CN43)=C(C)C1=O)[C@@H]2COC(N)=O (stereo not given in full)
T/C (endpoint: mean survival time, dose: 1.5 mg/kg/injection, schedule: Q01DX001 (ip), vehicle: distilled water + Tween-80): 109 % of control | T/C (endpoint: mean survival time, dose: 1.5 mg/kg/injection, schedule: Q01DX001 (ip), vehicle: water): 110 % of control | T/C (endpoint: mean survival time, dose: 3.0 mg/kg/injection, schedule: Q01DX001 (ip), vehicle: water): 121 % of control | T/C (endpoint: mean survival time, dose: 6.0 mg/kg/injection, schedule: Q01DX001 (ip), vehicle: water): 122 % of control | T/C (endpoint: mean survival time, dose: 12.0 mg/kg/injection, schedule: Q01DX001 (ip), vehicle: distilled water + Tween-80): 162 % of control | T/C (endpoint: mean survival time, dose: 12.0 mg/kg/injection, schedule: Q01DX001 (ip), vehicle: water): 151 % of control | T/C (endpoint: mean survival time, dose: 24.0 mg/kg/injection, schedule: Q01DX001 (ip), vehicle: water): 104 % of control | T/C (endpoint: median survival time, dose: 0.05 mg/kg/injection, schedule: Q01DX009 (ip), vehicle: other): 108 % of control | T/C (endpoint: median survival time, dose: 0.1 mg/kg/injection, schedule: Q01DX009 (ip), vehicle: other): 119 % of control | T/C (endpoint: median survival time, dose: 0.2 mg/kg/injection, schedule: Q01DX009 (ip), vehicle: other): 119 % of control | T/C (endpoint: median survival time, dose: 0.2 mg/kg/injection, schedule: Q04DX003 (ip), vehicle: other): 104 % of control | T/C (endpoint: median survival time, dose: 0.4 mg/kg/injection, schedule: Q01DX001 (ip), vehicle: other): 119 % of control | T/C (endpoint: median survival time, dose: 0.4 mg/kg/injection, schedule: Q04DX003 (ip), vehicle: other): 110 % of control | T/C (endpoint: median survival time, dose: 0.8 mg/kg/injection, schedule: Q01DX001 (ip), vehicle: other): 116 % of control | T/C (endpoint: median survival time, dose: 0.8 mg/kg/injection, schedule: Q04DX003 (ip), vehicle: other): 124 % of control | T/C (endpoint: median survival time, dose: 1.6 mg/kg/injection, schedule: Q03DX003 (ip), vehicle: other): 151 % of control | T/C (endpoint: median survival time, dose: 3.2 mg/kg/injection, schedule: Q01DX009 (ip), vehicle: other): 161 % of control | T/C (endpoint: median survival time, dose: 3.2 mg/kg/injection, schedule: Q03DX003 (ip), vehicle: other): 154 % of control and 176 % of control | T/C (endpoint: median survival time, dose: 3.2 mg/kg/injection, schedule: Q04DX003 (ip), vehicle: other): 165 % of control | T/C (endpoint: median survival time, dose: 6.4 mg/kg/injection, schedule: Q01DX009 (ip), vehicle: other): 124 % of control | T/C (endpoint: median survival time, dose: 6.4 mg/kg/injection, schedule: Q03DX003 (ip), vehicle: other): 173 % of control and 187 % of control | T/C (endpoint: median survival time, dose: 6.4 mg/kg/injection, schedule: Q04DX003 (ip), vehicle: other): 178 % of control | T/C (endpoint: median survival time, dose: 9.6 mg/kg/injection, schedule: Q01DX001 (ip), vehicle: other): 168 % of control | T/C (endpoint: median survival time, dose: 9.6 mg/kg/injection, schedule: Q03DX003 (ip), vehicle: other): 154 % of control | T/C (endpoint: median survival time, dose: 9.6 mg/kg/injection, schedule: Q04DX003 (ip), vehicle: other): 169 % of control | T/C (endpoint: median survival time, dose: 19.2 mg/kg/injection, schedule: Q01DX001 (ip), vehicle: other): 160 % of control

COc1ccc2nc(-c3ccc(F)cc3)cc(C(=O)O)c2c1
T/C [1]: 97 % of control | T/C [2]: 101 % of control | T/C [3]: 101 % of control

CCOC(=O)CN/N=C(\N)CSS(=O)(=O)O
T/C [1]: 97 % of control | T/C [2]: 97 % of control | T/C [3]: 100 % of control

CCOC1(C(C)C)CCC(C)/C(=C\c2ccc([N+](=O)[O-])cc2)C1=O (stereo not given)
T/C [1]: 93 % of control | T/C [2]: 93 % of control | T/C [3]: 96 % of control

O=C(NC(=O)c1ccccc1)Nc1ccccc1
T/C [4]: 96 % of control | T/C [1]: 92 % of control | T/C [2]: 90 % of control | T/C [5]: 94 % of control | T/C [3]: 90 % of control

NOCc1csc(NC(=O)Nc2ccccc2)n1
T/C (endpoint: mean survival time, dose: 18.8 mg/kg/injection, schedule: Q01DX001 (ip), vehicle: saline with Tween-80): 110 % of control | T/C (endpoint: mean survival time, dose: 18.8 mg/kg/injection, schedule: Q04DX003 (ip), vehicle: saline with Tween-80): 98 % of control | T/C (endpoint: mean survival time, dose: 37.5 mg/kg/injection, schedule: Q01DX001 (ip), vehicle: saline with Tween-80): 112 % of control | T/C (endpoint: mean survival time, dose: 37.5 mg/kg/injection, schedule: Q04DX003 (ip), vehicle: saline with Tween-80): 98 % of control | T/C (endpoint: mean survival time, dose: 75.0 mg/kg/injection, schedule: Q01DX001 (ip), vehicle: saline with Tween-80): 96 % of control | T/C (endpoint: mean survival time, dose: 75.0 mg/kg/injection, schedule: Q04DX003 (ip), vehicle: saline with Tween-80): 98 % of control

CCCCC(Sc1n[nH]c(=O)[nH]c1=O)C(=O)OCC (stereo not given)
T/C (endpoint: mean survival time, dose: 12.5 mg/kg/injection, schedule: Q01DX005 (ip), vehicle: distilled water + Tween-80): 96 % of control | T/C (endpoint: mean survival time, dose: 25.0 mg/kg/injection, schedule: Q01DX005 (ip), vehicle: distilled water + Tween-80): 100 % of control | T/C (endpoint: mean survival time, dose: 50.0 mg/kg/injection, schedule: Q01DX005 (ip), vehicle: distilled water + Tween-80): 96 % of control | T/C (endpoint: mean survival time, dose: 100.0 mg/kg/injection, schedule: Q01DX005 (ip), vehicle: distilled water + Tween-80): 103 % of control | T/C (endpoint: mean survival time, dose: 200.0 mg/kg/injection, schedule: Q01DX005 (ip), vehicle: distilled water + Tween-80): 97 % of control

COc1cc(N=Nc2ccccc2C(=O)O)ccc1N(CCCl)CCCl
T/C (endpoint: mean survival time, dose: 6.25 mg/kg/injection, schedule: Q01DX009 (ip), vehicle: Klucel (hydroxypropylcellulose) (HPC)): 99 % of control | T/C (endpoint: mean survival time, dose: 12.5 mg/kg/injection, schedule: Q01DX009 (ip), vehicle: Klucel (hydroxypropylcellulose) (HPC)): 108 % of control | T/C (endpoint: mean survival time, dose: 25.0 mg/kg/injection, schedule: Q01DX009 (ip), vehicle: Klucel (hydroxypropylcellulose) (HPC)): 123 % of control

COc1cc2c(cc1OC)[C@@H]1C(=O)c3ccc4c(c3O[C@@H]1CO2)C[C@H](C(C)C)O4
T/C (endpoint: median survival time, dose: 6.25 mg/kg/injection, schedule: Q01DX005 (ip), vehicle: Klucel (hydroxypropylcellulose) (HPC)): 107 % of control | T/C (endpoint: median survival time, dose: 12.5 mg/kg/injection, schedule: Q01DX005 (ip), vehicle: Klucel (hydroxypropylcellulose) (HPC)): 115 % of control | T/C (endpoint: median survival time, dose: 18.0 mg/kg/injection, schedule: Q01DX005 (ip), vehicle: Klucel (hydroxypropylcellulose) (HPC)): 113 % of control | T/C (endpoint: median survival time, dose: 25.0 mg/kg/injection, schedule: Q01DX005 (ip), vehicle: Klucel (hydroxypropylcellulose) (HPC)): 115 % of control | T/C (endpoint: median survival time, dose: 30.0 mg/kg/injection, schedule: Q01DX005 (ip), vehicle: Klucel (hydroxypropylcellulose) (HPC)): 118 % of control | T/C (endpoint: median survival time, dose: 100.0 mg/kg/injection, schedule: Q01DX005 (ip), vehicle: Klucel (hydroxypropylcellulose) (HPC)): 100 % of control

c1cc[c]([Ge]([c]2ccccc2)([c]2ccccc2)[c]2ccccc2)cc1
T/C [6]: 86 % of control | T/C [7]: 86 % of control | T/C [8]: 91 % of control

O=C(O)/C=C/C(=O)Nc1ccc(N=Nc2ccccc2)cc1
T/C [1]: 93 % of control | T/C [2]: 98 % of control

CC/C(=N/O)c1ccccc1
T/C [4]: 98 % of control | T/C [9]: 92 % of control | T/C [5]: 103 % of control

C[n+]1c2ccccc2c(Cl)c2ccccc21
T/C (endpoint: mean survival time, dose: 100.0 mg/kg/injection, schedule: Q01DX001 (ip), vehicle: saline with Tween-80): 104 % of control | T/C (endpoint: mean survival time, dose: 200.0 mg/kg/injection, schedule: Q01DX001 (ip), vehicle: saline with Tween-80): 109 % of control

CN1C(=O)CN=C(c2ccccn2)c2cc(Cl)ccc21
T/C (endpoint: mean survival time, dose: 100.0 mg/kg/injection, schedule: Q01DX009 (ip), vehicle: saline sonified): 97 % of control | T/C (endpoint: mean survival time, dose: 200.0 mg/kg/injection, schedule: Q01DX009 (ip), vehicle: saline sonified): 90 % of control | T/C (endpoint: mean survival time, dose: 400.0 mg/kg/injection, schedule: Q01DX009 (ip), vehicle: saline sonified): 102 % of control

CCCCCCCCCCC(=O)CCCC
T/C [1]: 98 % of control | T/C [2]: 94 % of control | T/C [3]: 100 % of control

OCP(CO)CO.[Cl][Hg][Cl]
T/C (endpoint: mean survival time, dose: 12.5 mg/kg/injection, schedule: Q04DX003 (ip), vehicle: saline): 119 % of control | T/C (endpoint: mean survival time, dose: 25.0 mg/kg/injection, schedule: Q04DX003 (ip), vehicle: saline): 116 % of control

C=CCC(Cl)(C(=O)OC)C(=O)OC
T/C [4]: 108 % of control | T/C [9]: 108 % of control | T/C [5]: 106 % of control

NP(N)(=O)c1ccccc1
T/C [6]: 94 % of control | T/C [7]: 98 % of control | T/C [8]: 94 % of control

C=C(C)C1CCC2(C=O)CCC3(C)C(CCC4C5(C)CCC(OC6CCCCO6)C(C)(C)C5CCC43C)C12 (stereo not given)
T/C (endpoint: mean survival time, dose: 6.25 mg/kg/injection, schedule: Q04DX002 (ip), vehicle: saline with Tween-80): 111 % of control | T/C (endpoint: mean survival time, dose: 12.5 mg/kg/injection, schedule: Q04DX002 (ip), vehicle: saline with Tween-80): 100 % of control | T/C (endpoint: mean survival time, dose: 25.0 mg/kg/injection, schedule: Q04DX002 (ip), vehicle: saline with Tween-80): 100 % of control

Cc1ccc(OCc2c(COc3ccc(Cl)cc3)sc3ccc(Cl)cc23)cc1
T/C [1]: 96 % of control | T/C [3]: 88 % of control

CC(C)CNC1=CC(=O)c2ccccc2C1=O
T/C [1]: 95 % of control | T/C [2]: 98 % of control | T/C [3]: 101 % of control

Cc1cc(Cl)ccc1NS(=O)(=O)c1cccc([N+](=O)[O-])c1
T/C [1]: 97 % of control | T/C [2]: 93 % of control | T/C [3]: 90 % of control
